# From patent US7468391B2, “Methods for treating retinoid responsive disorders using selective inhibitors of CYP26A and CYP26B” (Allergan, Inc., priority 2003, dated 2008)
# Key:
# [1] = molecular target: T1, CYP26A (P450RAI-1) (Homo sapiens, UniProt O43174); experiment: Cell-based inhibition of RA metabolism in CYP26A stably transfected HeLa cells; settings: stably transfected HeLa cells, [3H]-RA, 3 hours at 37° C.; read-out: P450RAI-1 Whole cell IC50
# T1 construct: expressed in transfected cells; host or cells: HeLa
# T1 sequence (O43174 1-497): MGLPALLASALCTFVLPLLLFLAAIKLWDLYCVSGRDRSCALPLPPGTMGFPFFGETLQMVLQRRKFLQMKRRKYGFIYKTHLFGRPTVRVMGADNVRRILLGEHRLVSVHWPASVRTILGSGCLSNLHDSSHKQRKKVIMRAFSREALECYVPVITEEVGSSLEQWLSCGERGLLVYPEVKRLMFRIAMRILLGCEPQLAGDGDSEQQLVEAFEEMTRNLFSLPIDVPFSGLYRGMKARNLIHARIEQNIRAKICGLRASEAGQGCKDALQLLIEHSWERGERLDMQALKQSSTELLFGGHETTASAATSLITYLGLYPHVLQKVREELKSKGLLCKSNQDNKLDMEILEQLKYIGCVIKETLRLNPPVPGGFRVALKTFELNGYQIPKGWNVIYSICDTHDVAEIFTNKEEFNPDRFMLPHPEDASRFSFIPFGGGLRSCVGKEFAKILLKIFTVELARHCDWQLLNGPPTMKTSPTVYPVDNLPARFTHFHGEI
# Method in brief: (§1)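 Stably transfected HeLa cells (5×10^5/well) in MEM with 10% FBS and 0.05 μCi [3H]-RA, compounds at 10, 1 or 0.1 μM final, 3 h at 37° C. Retinoids extracted by modified Bligh-Dyer (methylene chloride); aqueous radioactivity counted; ID50 for 50% inhibition of RA metabolism derived from log-transformed data.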
# [2] = molecular target: T2, CYP26B (P450RAI-2) (Homo sapiens, UniProt Q9NR63); experiment: Cell-based inhibition of RA metabolism in CYP26B stably transfected HeLa cells; settings: stably transfected HeLa cells, [3H]-RA, 3 hours at 37° C.; read-out: P450RAI-2 Whole cell IC50
# T2 construct: expressed in transfected cells; host or cells: HeLa
# T2 sequence (Q9NR63 1-512): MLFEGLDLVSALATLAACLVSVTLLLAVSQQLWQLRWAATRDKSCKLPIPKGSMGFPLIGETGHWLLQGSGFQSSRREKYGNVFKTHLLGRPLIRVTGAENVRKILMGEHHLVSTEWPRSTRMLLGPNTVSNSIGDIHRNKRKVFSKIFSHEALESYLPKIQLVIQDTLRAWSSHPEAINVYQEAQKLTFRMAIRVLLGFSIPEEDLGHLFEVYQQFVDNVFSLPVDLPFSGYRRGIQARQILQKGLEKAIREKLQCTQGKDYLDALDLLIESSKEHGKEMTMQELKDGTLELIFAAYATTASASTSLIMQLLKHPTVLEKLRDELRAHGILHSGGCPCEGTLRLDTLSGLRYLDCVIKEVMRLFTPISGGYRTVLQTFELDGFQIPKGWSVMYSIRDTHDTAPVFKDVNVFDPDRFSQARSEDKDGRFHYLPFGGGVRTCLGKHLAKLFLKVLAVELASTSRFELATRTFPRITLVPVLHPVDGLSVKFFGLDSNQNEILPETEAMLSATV
# Method in brief: as §1
# [3] = molecular target: T3, RAR β (Homo sapiens, UniProt P10826); experiment: RAR β EC50/(efficacy); assay type: cell-based; settings: for RAR β (EFFICACY): value in brackets of cell EC50/(EFFICACY)/Kd
# T3 sequence (P10826 1-455): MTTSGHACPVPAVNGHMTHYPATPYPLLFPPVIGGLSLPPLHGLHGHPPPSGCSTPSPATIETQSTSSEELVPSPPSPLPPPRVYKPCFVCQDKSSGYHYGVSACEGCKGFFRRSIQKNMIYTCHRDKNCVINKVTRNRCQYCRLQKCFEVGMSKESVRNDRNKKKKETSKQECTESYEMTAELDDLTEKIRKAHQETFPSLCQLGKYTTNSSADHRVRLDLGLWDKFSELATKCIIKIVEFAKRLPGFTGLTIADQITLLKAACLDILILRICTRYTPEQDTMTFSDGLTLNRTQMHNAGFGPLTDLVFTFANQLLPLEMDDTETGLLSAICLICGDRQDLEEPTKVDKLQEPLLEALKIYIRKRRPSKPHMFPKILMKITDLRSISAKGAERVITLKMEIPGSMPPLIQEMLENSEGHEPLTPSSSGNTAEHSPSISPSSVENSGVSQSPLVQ
# [4] = molecular target: T4, RAR γ (Homo sapiens, UniProt P13631); experiment: RAR γ EC50/(efficacy); assay type: cell-based; settings: value in brackets of cell EC50/(EFFICACY)/Kd
# T4 sequence (P13631 1-454): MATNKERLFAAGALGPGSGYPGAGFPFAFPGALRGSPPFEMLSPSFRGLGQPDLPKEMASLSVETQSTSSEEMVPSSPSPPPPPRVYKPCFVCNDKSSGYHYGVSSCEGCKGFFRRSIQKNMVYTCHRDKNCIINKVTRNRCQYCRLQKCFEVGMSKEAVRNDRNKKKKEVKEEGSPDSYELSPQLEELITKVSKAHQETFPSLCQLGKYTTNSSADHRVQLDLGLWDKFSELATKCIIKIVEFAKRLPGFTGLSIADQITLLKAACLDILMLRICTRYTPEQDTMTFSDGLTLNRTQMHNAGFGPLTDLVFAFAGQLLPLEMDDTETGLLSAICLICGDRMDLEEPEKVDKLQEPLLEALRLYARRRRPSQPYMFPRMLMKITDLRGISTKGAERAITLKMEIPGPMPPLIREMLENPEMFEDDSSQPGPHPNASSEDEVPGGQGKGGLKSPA
# [5] = molecular target: T5, RAR α (Homo sapiens, UniProt P10276); experiment: RAR α Kd; assay type: binding; settings: last item of cell EC50/(EFFICACY)/Kd
# T5 sequence (P10276 1-462): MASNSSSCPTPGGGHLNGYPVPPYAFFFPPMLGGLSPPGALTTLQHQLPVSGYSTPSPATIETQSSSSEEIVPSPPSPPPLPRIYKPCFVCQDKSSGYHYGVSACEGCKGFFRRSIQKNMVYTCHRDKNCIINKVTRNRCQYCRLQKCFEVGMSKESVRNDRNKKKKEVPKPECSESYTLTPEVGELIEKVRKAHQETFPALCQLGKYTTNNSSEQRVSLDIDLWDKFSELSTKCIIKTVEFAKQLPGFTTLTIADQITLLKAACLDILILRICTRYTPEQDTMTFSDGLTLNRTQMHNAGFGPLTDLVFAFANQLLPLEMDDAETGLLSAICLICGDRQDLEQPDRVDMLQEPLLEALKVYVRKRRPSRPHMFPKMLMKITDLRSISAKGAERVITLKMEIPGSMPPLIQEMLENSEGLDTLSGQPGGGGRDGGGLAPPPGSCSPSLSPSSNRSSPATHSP
# [6] = molecular target: T3, RAR β; experiment: RAR β Kd; assay type: binding; settings: last item of cell EC50/(EFFICACY)/Kd
# [7] = molecular target: T4, RAR γ; experiment: RAR γ Kd; assay type: binding; settings: last item of cell EC50/(EFFICACY)/Kd
SMILES,IC50 [1] [µM],IC50 [2] [µM],RAR β (EFFICACY) [3],RAR γ (EFFICACY) [4],Kd [5] [µM],Kd [6] [µM],Kd [7] [µM],EC50 ([3]; first item of cell EC50/(EFFICACY)/Kd) [µM]
C/C(=C\c1ccc(C#Cc2cc(C3CC3)c3c(c2)C(C)(C)CC2(CC2)O3)cc1)C(=O)O [Compound 3],0.25,> 10,15,10,> 10,0.52,6.04,
"Cc1ccc(C(C)(C)C)cc1C#Cc1ccc(/C=C/C(=O)O)cc1 [Compound 36, 3-[4-(5-tert-Butyl-2-methyl-phenylethynyl)-phenyl]-acrylic acid]",> 10,0.4,40,15,> 10,3.52,2.08,
"C/C(=C\c1ccc(C#Cc2cccc(CN(C)C3CC3)c2)cc1)C(=O)O [Compound 33, 3-(4-{3-[(Cyclopropyl-methyl-amino)-methyl]-phenylethynyl}-phenyl)-2-methyl-acrylic acid]",> 10,1,30,10,3.25,,> 10,
"CN(C1CC1)C1CCC(C)(C)c2cc(C#Cc3ccc(/C=C/C(=O)O)cc3)cc(C3CC3)c21 (stereo not shown) [Compound 48, 3-{4-[4-Cyclopropyl-5-(cyclopropyl-methyl-amino)-8,8-dimethyl-5,6,7,8-tetrahydro-naphthalen-2-ylethynyl]-phenyl}-acrylic acid]",0.7,,40,25,,,,
"C#Cc1cc(NC(=O)Nc2ccc(C(=O)O)c(F)c2)cc2c1OC(C)(C)CC2(C)C [Compound 63, 4-[3-(8-Ethynyl-2,2,4,4-tetramethyl-chroman-6-yl)-ureido]-2-fluoro-benzoic acid]",> 10,0.68,37,,> 100,11,> 100,0.853
"CCOC(=O)C1=C(C)CC(C)(C)c2cc(C#Cc3ccc(CC(=O)O)cc3)ccc21 [Compound 58, 6-(4-Carboxymethyl-phenylethynyl)-2,4,4-trimethyl-3,4-dihydro-naphthalene-1-carboxylic acid ethyl ester]",3.5,> 10,25,,> 10,4.61,> 10,
"CC1(C)CC(C)(C)c2cc(C#Cc3ccc(CC(=O)O)c(F)c3)cc(O)c2O1 [Compound 10, [2-Fluoro-4-(8-hydroxy-2,2,4,4-tetramethyl-chroman-6-ylethynyl)-phenyl]-acetic acid]",0.07,0.7,15,,> 10,> 10,> 10,
"CN(Cc1cccc(C#Cc2ccc(/C=C/C(=O)O)cc2)c1)C1CC1 [Compound 31, (E)-3-(4-{3-[(Cyclopropyl-methyl-amino)-methyl]-phenylethynyl}-phenyl)-acrylic acid]",> 10,0.6,25,,> 10,> 10,> 10,
"CCOC(=O)C1CCC(C)(C)c2cc(C#Cc3ccc(CC(=O)O)cc3)c(C)cc21 (stereo not shown) [Compound 57, 6-(4-Carboxymethyl-phenylethynyl)-4,4,7-trimethyl-1,2,3,4-tetrahydro-naphthalene-1-carboxylic acid ethyl ester]",0.4,,50,35,6.03,4.98,7.74,

# More lines, in order of falling IC50 [1], values ahead:
IC50 [1] [µM],IC50 [2] [µM],RAR β (EFFICACY) [3],RAR γ (EFFICACY) [4],Kd [5] [µM],Kd [6] [µM],Kd [7] [µM],EC50 ([3]; first item of cell EC50/(EFFICACY)/Kd) [µM],SMILES
0.2,> 10,5,,> 10,> 10,> 10,,"CC(C(=O)O)c1ccc(C#Cc2ccc3c(c2)C(C)(C)CCC3N(C)C2CC2)cc1 (stereo not shown) [Compound 51, 2-{4-[5-(Cyclopropyl-methyl-amino)-8,8-dimethyl-5,6,7,8-tetrahydro-naphthalen-2-ylethynyl]-phenyl}-propionic acid]"
0.18,> 10,15,,> 10,> 10,> 10,,"COc1cc(C#CC2=CCC(/C=C(\C)C(=O)O)C=C2)cc2c1C(N(C)C1CC1)CCC2(C)C (stereo not shown) [Compound 30, (E)-3-{4-[5-(Cyclopropyl-methyl-amino)-4-methoxy-8,8-dimethyl-5,6,7,8-tetrahydro-naphthalen-2-ylethynyl]-cyclohexa-2,4-dienyl}-2-methyl-acrylic acid]"
0.12,> 10,20,15,> 10,> 10,> 10,,CC1(C)CC2(CC2)Oc2c(C3CC3)cc(C#Cc3ccc(/C=C(\Cl)C(=O)O)cc3)cc21 [Compound 4]
0.018,5,25,,> 10,> 10,1.12,,"COc1cc(C#Cc2ccc(CC(=O)O)c(F)c2)cc2c1C(N(C)C1CC1)CCC2(C)C (stereo not shown) [Compound 26, {4-[5-(Cyclopropyl-methyl-amino)-4-methoxy-8,8-dimethyl-5,6,7,8-tetrahydro-naphthalen-2-ylethynyl]-2-fluoro-phenyl}-acetic acid]"
0.016,> 10,,30,> 10,> 10,> 10,,"CC(C)Oc1cc(C#Cc2ccc(CC(=O)O)cc2)cc2c1C(N(C)C1CC1)CCC2(C)C (stereo not shown) [Compound 41, {4-[5-(Cyclopropyl-methyl-amino)-4-isopropoxy-8,8-dimethyl-5,6,7,8-tetrahydro-naphthalen-2-ylethynyl]-phenyl}-acetic acid]"
